≈ marks a conversion by molar mass, not a printed value.
Columns and labels:
NB-4 = assay: Antiproliferative activity against human NB-4 cells; format: functional, cell-based
Bacillus subtilis = assay: Antibacterial activity against Bacillus subtilis ATCC 23857 by disc diffusion assay; format: functional
[1] = Antioxidant activity assessed as DPPH radical scavenging activity at 50 to 250 microg/ml incubated for 20 mins relative to control; format: functional; settings: dose 50-250 µg/ml
[2] = Antioxidant activity assessed as ABTS radical scavenging activity at 50 to 250 microg/ml incubated for 7 mins relative to control; format: functional; settings: dose 50-250 µg/ml
MCF7 = assay: Cytotoxicity against human MCF7 cells assessed as reduction in cell viability by MTT assay; format: functional, cell-based
MDA-MB-231 = assay: Cytotoxicity against human MDA-MB-231 cells assessed as reduction in cell viability by MTT assay; format: functional, cell-based
[3] = Antioxidant activity assessed as DPPH radical scavenging activity relative to control; format: functional; parameters: concentration or dose not given beside the values
[4] = Activation of AMPK in rat L6 cells assessed as increase in AMPK phosphorylation; format: cell-based
HepG2 = assay: Antiproliferative activity against human HepG2 cells assessed as reduction in cell viability measured after 48 hrs by trypan blue staining method; format: functional, cell-based; settings: HepG2, 48 h
SW480 = assay: Antiproliferative activity against human SW480 cells assessed as reduction in cell viability measured after 48 hrs by trypan blue staining method; format: functional, cell-based; settings: SW480, 48 h
[5] = biological target: Glucocorticoid receptor (Homo sapiens) (UniProt P04150); assay: Binding affinity to human GR assessed as inhibition of enzyme substrate complex formation
[6] = Cytotoxicity against ewing sarcoma cells (unknown origin); format: functional, cell-based; settings: Ewing sarcoma cell
[7] = Cytotoxicity against neuroblastoma cells (unknown origin); format: functional, cell-based; settings: Neuroblastoma cell
[8] = Cytotoxicity against osteosarcoma cells (unknown origin); format: functional, cell-based; settings: Osteosarcoma cell
[9] = Cytotoxicity against rhabdomyosarcoma cells (unknown origin); format: functional, cell-based; settings: Rhabdomyosarcoma cell
[10] = Cytotoxicity against normal foreskin fibroblast cells (unknown origin); format: toxicity, cell-based
[11] = Cytotoxicity against normal lung fibroblast cells (unknown origin); format: toxicity, cell-based
[12] = Cytotoxicity against normal primary bone marrow fibroblast cells (unknown origin); format: toxicity, cell-based
[13] = test system: unidentified influenza virus; assay: Antiviral activity against influenza virus; format: functional, organism-based
[14] = test system: Human immunodeficiency virus; assay: Antiviral activity against Human immunodeficiency virus; format: functional, organism-based; settings: Human immunodeficiency virus 1
[15] = test system: Vesicular stomatitis virus; assay: Antiviral activity against Vesicular stomatitis virus; format: functional, organism-based
Bel-7402 [16] = assay: Cytotoxicity against human Bel-7402 cells incubated for 48 hrs by MTT assay; format: functional, cell-based; settings: Bel-7402, 48 h
HeLa [17] = assay: Cytotoxicity against human HeLa cells incubated for 48 hrs by MTT assay; format: functional, cell-based
MG-63 [18] = assay: Cytotoxicity against human MG-63 cells incubated for 48 hrs by MTT assay; format: functional, cell-based; settings: MG-63, 48 h
SK-BR-3 = assay: Cytotoxicity against human SK-BR-3 cells incubated for 48 hrs by MTT assay; format: functional, cell-based; settings: SK-BR-3, 48 h
Vaccinia virus = assay: In vivo antiviral activity against Vaccinia virus infected in mouse assessed as reduction in virus severity of virus induced tail lesion at 250 mg/kg, po measured after 24 to 48 hrs relative to control; format: functional, Orthopoxvirus vaccinia; parameters: scale not given: the % may be the effect or the level left; settings: time 24-48 hrs
Bel-7402 [19] = assay: Cytotoxicity against human Bel-7402 cells assessed as reduction in cell viability measured after 48 hrs by MTT assay; format: functional, cell-based; settings: Bel-7402, 48 h
HeLa [20] = assay: Cytotoxicity against human HeLa cells assessed as reduction in cell viability measured after 48 hrs by MTT assay; format: functional, cell-based
A549 = assay: Cytotoxicity against human A549 cells assessed as reduction in cell viability measured after 48 hrs by MTT assay; format: functional, cell-based; settings: A549, 48 h
MG-63 [21] = assay: Cytotoxicity against human MG-63 cells assessed as reduction in cell viability measured after 48 hrs by MTT assay; format: functional, cell-based; settings: MG-63, 48 h
Trypanosoma brucei = assay: Antiprotozoal activity against Trypanosoma brucei; format: functional; settings: read-out: ED50 (the source's name)
Trypanosoma cruzi = assay: Antiprotozoal activity against Trypanosoma cruzi; format: functional; settings: read-out: ED50 (the source's name)
Leishmania donovani = assay: Antiprotozoal activity against Leishmania donovani; format: functional; settings: read-out: ED50 (the source's name)
Plasmodium falciparum [22] = assay: Antimalarial activity against chloroquine resistant Plasmodium falciparum K1 in human erythrocytes; format: functional, organism-based; settings: K1, Erythrocyte
CHO = assay: Cytotoxicity against CHO cells measured after 48 hrs by MTT assay; format: toxicity, cell-based, Cricetulus griseus; settings: chinese hamster
Beta-secretase 1 = Beta-secretase 1 (Homo sapiens, UniProt P56817); assay: Inhibition of BACE1 (unknown origin)
Plasmodium falciparum [23] = assay: Antimalarial activity against chloroquine resistant Plasmodium falciparum K14 in human blood assessed as reduction in parasitemia measured after 42 hrs; format: functional, organism-based

Glucocorticoid receptor (Homo sapiens), sequence (P04150 whole entry): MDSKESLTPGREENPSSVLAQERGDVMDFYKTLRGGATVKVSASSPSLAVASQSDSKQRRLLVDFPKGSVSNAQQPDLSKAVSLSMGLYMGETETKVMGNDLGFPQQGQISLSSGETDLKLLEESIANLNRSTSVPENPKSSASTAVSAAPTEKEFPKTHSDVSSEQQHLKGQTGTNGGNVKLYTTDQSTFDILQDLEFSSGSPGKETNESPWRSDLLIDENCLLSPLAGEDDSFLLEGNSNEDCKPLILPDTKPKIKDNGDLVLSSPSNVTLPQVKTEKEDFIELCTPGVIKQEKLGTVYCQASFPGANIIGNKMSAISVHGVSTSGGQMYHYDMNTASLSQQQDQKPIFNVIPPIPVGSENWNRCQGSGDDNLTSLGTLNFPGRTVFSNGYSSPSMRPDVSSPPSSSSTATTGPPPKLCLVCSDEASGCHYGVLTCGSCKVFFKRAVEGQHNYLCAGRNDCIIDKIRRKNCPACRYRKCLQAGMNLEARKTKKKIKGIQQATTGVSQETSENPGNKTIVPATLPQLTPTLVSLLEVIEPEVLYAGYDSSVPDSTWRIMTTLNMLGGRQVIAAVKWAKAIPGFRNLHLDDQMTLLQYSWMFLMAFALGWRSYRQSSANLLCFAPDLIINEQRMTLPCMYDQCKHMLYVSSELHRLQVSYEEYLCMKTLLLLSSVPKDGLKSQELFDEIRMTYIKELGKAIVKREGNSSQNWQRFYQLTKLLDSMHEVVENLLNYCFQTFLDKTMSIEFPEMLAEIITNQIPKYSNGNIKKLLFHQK
Beta-secretase 1, sequence (P56817 whole entry): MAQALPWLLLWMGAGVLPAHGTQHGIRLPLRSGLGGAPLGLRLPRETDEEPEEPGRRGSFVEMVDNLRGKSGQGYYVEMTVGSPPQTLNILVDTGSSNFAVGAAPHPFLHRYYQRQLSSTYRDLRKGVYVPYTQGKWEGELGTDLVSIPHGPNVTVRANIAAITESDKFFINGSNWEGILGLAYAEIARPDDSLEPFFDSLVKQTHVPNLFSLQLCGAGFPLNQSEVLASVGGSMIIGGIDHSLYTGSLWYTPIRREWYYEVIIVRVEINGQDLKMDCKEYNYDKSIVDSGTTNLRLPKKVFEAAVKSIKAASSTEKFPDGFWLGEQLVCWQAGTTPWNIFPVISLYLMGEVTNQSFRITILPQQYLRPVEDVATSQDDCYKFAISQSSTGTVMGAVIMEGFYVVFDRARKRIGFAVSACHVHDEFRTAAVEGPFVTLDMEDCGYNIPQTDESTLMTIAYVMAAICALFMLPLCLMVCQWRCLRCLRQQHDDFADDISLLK

c1ccc(-c2ccc3c(c2)C(c2ccccc2)c2c(ccc4ccccc24)O3)cc1 (centres undefined)
IC50 (NB-4): > 50 µM

O=C(N[C@H](CO)[C@H](O)c1ccc([N+](=O)[O-])cc1)C(Cl)Cl [CHLORAMPHENICOL]
MIC (Bacillus subtilis): 68.7 µg/mL (≈ 213 µM)

Oc1ccc(C2c3c(ccc4ccccc34)Oc3ccc4ccccc4c32)cc1
Activity [1]: 53.1% | Activity [2]: 73.2%

Cc1ccc(O)c(COCc2cc(C)cc3c2Oc2ccc(C)cc2C3)c1
MIC (Bacillus subtilis): 36.1 µg/mL (≈ 100 µM)

CC/C(=C1\c2ccccc2Oc2cc(OCCN3CCCC3)ccc21)c1ccccc1
IC50 (MCF7): 12.4 µM | IC50 (MDA-MB-231): 25.4 µM

COCc1cc(C)cc2c1Oc1ccc(C)cc1C2
MIC (Bacillus subtilis): 25.4 µg/mL (≈ 99.9 µM)

O=C(O)/C=C/c1ccc(O)c(O)c1
Activity [3]: 58.6%

CN(C)C(=N)NC(=N)N [METFORMIN]
EC50 [4]: 10000 µM

CNC(=O)c1ccc2c3c(ccc2c1)Oc1ccc2cc(C(=O)NC)ccc2c1C3c1ccc(Cl)cc1
IC50 (NB-4): 0.76 µM

O=C1OC(=O)c2c1cc1ccc(O)c3c1c2-c1cc(O)c(O)cc1O3
IC50 (HepG2): > 100 µM | IC50 (SW480): > 100 µM

COc1ccc(C2c3c(ccc4ccccc34)Oc3ccc4ccccc4c32)cc1
Activity [1]: 47.1% | Activity [2]: 67.5%

COC(=O)c1cc2ccc(O)c3c2c(c1C(=O)OC)-c1cc(O)c(O)cc1O3
IC50 (HepG2): 34.8 µM | IC50 (SW480): 32.9 µM

O=C(O)CCc1c2ccc(=O)cc-2oc2cc(O)ccc12
Kis [5]: 27 µM

COc1ccc(C2c3c(ccc4ccccc34)Oc3ccc4ccccc4c32)cc1OC
Activity [1]: 52.6% | Activity [2]: 70.8%

CC(=O)Oc1cc2c(cc1OC(C)=O)-c1c(C(=O)OCCc3ccccc3)c(C(=O)OCCc3ccccc3)cc3ccc(OC(C)=O)c(c13)O2
IC50 (HepG2): 26.7 µM | IC50 (SW480): 3.21 µM

O=C(O)c1c(Cl)c(Cl)c(Cl)c(Cl)c1-c1c2cc(I)c(=O)c(I)c-2oc2c(I)c(O)c(I)cc12 [ROSE BENGAL SODIUM]
IC50 [6]: 45 µM | IC50 [7]: 73 µM | IC50 [8]: 75 µM | IC50 [9]: 51 µM | IC50 [10]: 73 µM | IC50 [11]: 75 µM | IC50 [12]: 136 µM | IC50 [13]: 0.3 µM | IC50 [14]: 0.05 µM | IC50 [15]: 0.008 µM

COC12C(=O)C=Cc3cc(Br)cc(c31)Oc1ccc3cc(Br)ccc3c12 (centres undefined)
IC50 (Bel-7402 [16]): 42.3 µM | IC50 (HeLa [17]): 28.1 µM | IC50 (MG-63 [18]): 39.2 µM | IC50 (SK-BR-3): 14.3 µM

CN(C)CC(=O)c1ccc2c(c1)Cc1cc(C(=O)CN(C)C)ccc1O2
Activity (Vaccinia virus): 31%

Cc1cc2nc3cc(C)c(N)cc3[n+](-c3ccccc3)c2cc1N
Kis [5]: 453 µM

COc1cc2c(cc1OC)-c1c(C(=O)OCCc3ccccc3)c(C(=O)OCCc3ccccc3)cc3ccc(OC)c(c13)O2
IC50 (HepG2): > 100 µM | IC50 (SW480): > 100 µM

CC(=O)C1C(=O)C[C@@H]2CC[C@@]13c1c(cccc12)Oc1ccc2ccccc2c13 (some centres undefined)
IC50 (Bel-7402 [19]): 17.1 µM | IC50 (HeLa [20]): 30.1 µM | IC50 (A549): 54.9 µM | IC50 (MG-63 [21]): 82.5 µM

O=C(Nc1cccc([N+](=O)[O-])c1)NC(NC(=O)C1c2ccccc2Oc2ccccc21)C(Cl)(Cl)Cl (centres undefined)
EC50 [4]: 1.5 µM

CCOC12C(=O)C(CO)=Cc3cc(CO)cc(c31)Oc1c(CO)cc3cc(CO)ccc3c12 (centres undefined)
IC50 (Bel-7402 [16]): 10.1 µM | IC50 (HeLa [17]): 9.4 µM | IC50 (MG-63 [18]): 25.2 µM | IC50 (SK-BR-3): 6.2 µM

N#Cc1cccc(NC(=O)NC(NC(=O)C2c3ccccc3Oc3ccccc32)C(Cl)(Cl)Cl)c1 (centres undefined)
EC50 [4]: 1.5 µM

COc1cc(C2c3c(ccc4ccccc34)Oc3ccc4ccccc4c32)ccc1O
Activity [1]: 86.8% | Activity [2]: 83.1%

Cc1cc(C(C)(C)C)c(O)c(C(C)(C)C)c1
Activity [3]: 3.6%

CN(C)CCCNC(=O)c1cc(C(C)(C)C)cc2c1Oc1c(C(=O)NCCCN(C)C)cc(C(C)(C)C)cc1C2(C)C
EC50 (Trypanosoma brucei): 0.02 µM | EC50 (Trypanosoma cruzi): 0.48 µM | EC50 (Leishmania donovani): 0.55 µM

O=C1C(CO)=Cc2cccc3c2C1(O)c1c(ccc2ccccc12)O3 (centres undefined)
IC50 (Bel-7402 [16]): 45.2 µM | IC50 (HeLa [17]): 68.8 µM | IC50 (MG-63 [18]): 54.8 µM | IC50 (SK-BR-3): 26.2 µM

Cc1c(C)c2c(c(C)c1O)CCC(C)(CCCC(C)CCCC(C)CCCC(C)C)O2 (racemic)
Activity [3]: 61.1%

COC(=O)[C@@]1(O)C[C@@H](OC(=O)c2c(C(=O)O[C@@H]3C[C@](O)(C(=O)OC)C[C@@H]4OC(C)(C)O[C@H]43)cc3ccc(O)c4c3c2-c2cc(O)c(O)cc2O4)[C@@H]2OC(C)(C)O[C@@H]2C1
Activity [3]: 28.1%

O=[As][As+](=O)[O-] (centres undefined) [ARSENIC TRIOXIDE]
IC50 (NB-4): 5.31 µM

CNC(=O)c1ccc2c3c(ccc2c1)Oc1ccc2cc(C(=O)NC)ccc2c1C3c1ccc(F)cc1
IC50 (NB-4): 0.52 µM

O=C(OCCc1ccccc1)c1cc2ccc(O)c3c2c(c1C(=O)OCCc1ccccc1)-c1cc(O)c(O)cc1O3
IC50 (HepG2): 4.76 µM | IC50 (SW480): 2.57 µM | Activity [3]: 3.6%

CN(C)CCCNCC1c2ccccc2Oc2ccccc21
IC50 (Plasmodium falciparum [22]): 0.78 µM | IC50 (CHO): 331.1 µM

O=C1C=Cc2cccc3c2C1c1c(ccc2ccccc12)O3 (centres undefined)
IC50 (Bel-7402 [16]): 17.6 µM | IC50 (HeLa [17]): 18.5 µM | IC50 (MG-63 [18]): 20.1 µM | IC50 (SK-BR-3): 15.5 µM

COC(=O)c1cc2ccc(OC)c3c2c(c1C(=O)OC)-c1cc(OC)c(OC)cc1O3
IC50 (HepG2): > 100 µM | IC50 (SW480): > 100 µM

c1ccc(C2c3c(ccc4ccccc34)Oc3ccc4ccccc4c32)cc1
Activity [1]: 31.1% | Activity [2]: 63.5%

CC(C)(C)C(=O)N[C@H]1CC[C@@H]2Oc3ccc(-c4cncc(F)c4)cc3C3(CSC(N)=N3)[C@H]2C1 (some centres undefined)
IC50 (Beta-secretase 1): 0.0011 µM

Cc1ccc(C2c3cc(-c4ccccc4)ccc3Oc3ccc4ccccc4c32)cc1 (centres undefined)
IC50 (NB-4): > 50 µM

Fc1ccc(C2c3cc(-c4ccccc4)ccc3Oc3ccc4ccccc4c32)cc1 (centres undefined)
IC50 (NB-4): > 50 µM

CCOc1ccc(N2C(=O)C3(c4ccccc4Oc4ccccc43)C23c2ccccc2-c2ccccc23)cc1
IC50 (Plasmodium falciparum [23]): 5 µM

COC(=O)c1cc2ccc(OC(C)=O)c3c2c(c1C(=O)OC)-c1cc(OC(C)=O)c(OC(C)=O)cc1O3
IC50 (HepG2): 28.6 µM | IC50 (SW480): 25.5 µM

Clc1ccc(C2c3cc(-c4ccccc4)ccc3Oc3ccc4ccccc4c32)cc1 (centres undefined)
IC50 (NB-4): > 50 µM

Source: ChEMBL document CHEMBL5149963, “Xanthenes in Medicinal Chemistry - Synthetic strategies and biological activities” (Eur J Med Chem, 2021)
